{"source": "BindingDB's records for doi:10.1021/jm0499108", "about": "(University of Michigan, 2004)", "molecular_target": "T1, E3 ubiquitin-protein ligase XIAP [241-356] (Homo sapiens, UniProt P98170)", "T1 construct": "241-356", "T1 sequence (P98170 241-356)": "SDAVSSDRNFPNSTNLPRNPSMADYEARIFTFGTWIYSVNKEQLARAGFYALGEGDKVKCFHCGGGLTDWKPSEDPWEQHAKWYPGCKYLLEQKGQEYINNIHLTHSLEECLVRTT", "experiment": "Fluorescence Polarization Competitive Binding Assay", "settings": "pH 7.5; 22 °C", "protocol": "A quantitative in vitro binding assay using the fluorescence polarization (FP) based method was developed and used to determine the binding affinity of Smac mimetics to XIAP protein. The polarization values were measured after 3 hrs of incubation when the binding reached equilibrium. […] Curve fitting was performed using Prism ([sequence]). The binding affinity (Ki) of tested compound was calculated using the equation developed for computing the Ki value in FP-based binding assays."}
{"compound": "C[C@H](N)C(=O)N[C@H]1CC[C@H]2CC[C@@H](C(=O)Nc3ccccc3)N2C1=O", "note": "[(3S,6S,8aS)-6-[(2S)-2-aminopropanamido]-5-oxo-N-phenyl-octahydroindolizine-3-carboxamide]", "values": [{"measurement": "Ki", "value": "> 100", "unit": "µM"}]}
